Results from US4843087A (priority 1986, dated 1989).
≈ marks a conversion by molar mass, not a printed value. Like-named read-outs stand apart in the source and are kept apart here.

Legend:
[1] = tested on: human rhinovirus (HRV) serotypes; test: microbe, parasite or virus in culture; assay type: cell-based; conditions: for MIC50: read-out: Rhinovirus MIC50
[2] = tested on: Polio 2; test: microbe, parasite or virus in culture; assay type: cell-based, poliovirus; conditions: Enterovirus C, HeLa, read-out: Polio 2 MIC
[3] = tested on: poliovirus, type 2, MEF strain; test: animal or person; assay type: in vivo, white Swiss mice; conditions: Enterovirus C, in Mus musculus, po, 336 h, read-out: Survivors Day 14 Post Infection
[4] = blood plasma concentration in dogs after oral administration; assay type: in vivo; conditions: dog, beagle dogs, fasted, oral 25 mg/kg in corn oil, up to six hours
Method: The blood plasma concentrations of the compounds of the invention were measured in beagle dogs by the following procedure: Animals ranging in weight from 8.5 to 11.5 kg were fasted overnight prior to oral administration of 25 mg/kg of the test compound dissolved in corn oil (125 mg/ml) and contained in gelatin capsules. Blood samples were collected at selected time intervals up to six hours post-medication and analyzed by standard chromatographic procedures to determine the mean maximum concentration of the test compound in micrograms per milliliter [Mean Cmax, μg/ml].

[5] = tested on: echovirus-9; test: in vivo efficacy in echovirus-9 mouse infection model
[6] = tested on: coxsackie virus A-9; test: in vivo efficacy in coxsackie virus A-9 mouse infection model
[7] = tested on: enteroviruses; test: microbe, parasite or virus in culture; assay type: cell-based; conditions: Enterovirus, read-out: MIC80

Cc1cc(CCCCCOc2ccc(C3=NCCO3)cc2Cl)on1 [15(b), 5-{5-[2-Chloro-4-(4,5-dihydro-2-oxazolyl)phenoxy]pentyl}-3-methylisoxazole]
MIC50 [1]: 0.08 µg/mL (≈ 0.229 µM) | IC (MIC80 of serotype panel) ([1]; read-out: Rhinovirus MIC80): 0.35 µg/mL | MIC [2]: 0.12 µg/mL (≈ 0.344 µM) | responders at 50 mg/kg [3]: 40% | responders at 100 mg/kg [3]: 60%

Cc1cc(CCCCCOc2ccc(C3=NCCO3)cc2)no1 [7(k), 3-{5-[4-(4,5-Dihydro-2-oxazolyl)phenoxy]pentyl}-5-methylisoxazole]
MIC50 [1]: 1.3 µg/mL (≈ 4.14 µM) | IC (MIC80 of serotype panel) ([1]; read-out: Rhinovirus MIC80): 74.6 µg/mL | MIC [2]: 0.0012 µg/mL (≈ 0.00382 µM) | responders at 100 mg/kg [3]: 80%

Cc1cc(CCCCCOc2c(C)cc(C3=NCCO3)cc2C)on1 [Example 58, 5-{5-[4-(4,5-Dihydro-2-oxazolyl)-2,6-dimethylphenoxy]pentyl}-3-methylisoxazole]
MIC50 [1]: 0.15 µg/mL (≈ 0.438 µM) | IC (MIC80 of serotype panel) ([1]; read-out: Rhinovirus MIC80): 0.43 µg/mL | MIC [2]: 3.1 µg/mL (≈ 9.05 µM) | Cmax [4]: 4260 ± 470 ng/mL

Cc1cc(CCCCCCCc2ccc(C3=NCCO3)cc2)on1 [6(g), 5-{7-[4-(4,5-Dihydro-2-oxazolyl)phenyl]heptyl}-3-methylisoxazole]
MIC [2]: 0.09 µg/mL (≈ 0.276 µM) | responders at 50 mg/kg [3]: 25% | responders at 100 mg/kg [3]: 85% | responders at 200 mg/kg [3]: 95%

Cc1cc(CCCCCCCOc2ccc(C3=NCCO3)cc2)on1 [Example 1(c), 5-{7-[4-(4,5-Dihydro-2-oxazolyl)phenoxy]heptyl}-3-methylisoxazole]
MIC50 [1]: 1.7 µg/mL (≈ 4.96 µM) | IC (MIC80 of serotype panel) ([1]; read-out: Rhinovirus MIC80): 99 µg/mL | MIC [2]: 0.04 µg/mL (≈ 0.117 µM) | responders at 50 mg/kg [3]: 70% | responders at 100 mg/kg [3]: 90%

Cc1cc(CCCCCOc2c(Cl)cc(C3=NC(C)CO3)cc2Cl)on1 (centres unmarked) [Example 107, 5-{5-[2,6-Dichloro-4-(4,5-dihydro-4-methyl-2-oxazolyl)phenoxy]pentyl}-3-methylisoxazole]
MIC50 [1]: 0.12 µg/mL (≈ 0.302 µM) | IC (MIC80 of serotype panel) ([1]; read-out: Rhinovirus MIC80): 0.37 µg/mL | MIC [2]: 4.6 µg/mL (≈ 11.6 µM) | Cmax [4]: 1530 ± 140 ng/mL

Cc1cc(CCCCCCCOc2ccc(C3=NC(C)CO3)cc2)on1 (racemic) [Example 3, 5-{7-[4-(4,5-Dihydro-4-methyl-2-oxyazolyl)phenoxy]heptyl}-3-methylisoxazole]
MIC50 [1]: 0.07 µg/mL (≈ 0.196 µM) | IC (MIC80 of serotype panel) ([1]; read-out: Rhinovirus MIC80): 1.6 µg/mL | MIC [2]: 1.2 µg/mL (≈ 3.37 µM) | responders at 100 mg/kg [3]: 45% | responders at 200 mg/kg [3]: 60% | responders at 400 mg/kg [3]: 70%

Cc1cc(CCCCCCOc2c(Cl)cc(C3=NCCO3)cc2Cl)on1 [Example 106, 5-{6-[2,6-Dichloro-4-(4,5-dihydro-2-oxazolyl)phenoxy]hexyl}-3-methylisoxazole]
MIC50 [1]: 0.18 µg/mL (≈ 0.453 µM) | IC (MIC80 of serotype panel) ([1]; read-out: Rhinovirus MIC80): 0.41 µg/mL | MIC [2]: 0.58 µg/mL (≈ 1.46 µM) | Cmax [4]: 1530 ± 150 ng/mL

Cc1cc(CCCCCOc2c(Cl)cc(-c3nc(C)c(C)o3)cc2Cl)on1 [119(c), 5-{5-[2,6-Dichloro-4-(4,5-dimethyl-2-oxazolyl)phenoxy]pentyl}-3-methylisoxazole]
MIC50 [1]: 0.32 µg/mL (≈ 0.782 µM) | IC (MIC80 of serotype panel) ([1]; read-out: Rhinovirus MIC80): 0.53 µg/mL | Cmax [4]: 2130 ± 480 ng/mL

Cc1cc(CCCCCOc2c(C)cc(C3=NCCO3)cc2Cl)on1 [154(c), 5-{5-[2-Chloro-4-(4,5-dihydro-2-oxazolyl)-6-methylphenoxy]pentyl}-3-methylisoxazole]
MIC50 [1]: 0.22 µg/mL (≈ 0.606 µM) | IC (MIC80 of serotype panel) ([1]; read-out: Rhinovirus MIC80): 0.33 µg/mL | MIC [2]: 0.8 µg/mL (≈ 2.2 µM)

Cc1cc(CCCCC(C)Oc2c(Cl)cc(C3=NCCO3)cc2Cl)on1 (centres unmarked) [Example 109, 5-{5-[2,6-Dichloro-4-(4,5-dihydro-2-oxazolyl)phenoxy]hexyl}-3-methylisoxazole]
MIC50 [1]: 0.16 µg/mL (≈ 0.403 µM) | IC (MIC80 of serotype panel) ([1]; read-out: Rhinovirus MIC80): 0.89 µg/mL | MIC [2]: 2.9 µg/mL (≈ 7.3 µM) | Cmax [4]: 2110 ± 610 ng/mL

Cc1cc(CCCCCCc2ccc(C3=NCCO3)cc2)on1 [Example 142]
MIC50 [1]: 0.26 µg/mL (≈ 0.832 µM) | IC (MIC80 of serotype panel) ([1]; read-out: Rhinovirus MIC80): 6.2 µg/mL | MIC [2]: 0.37 µg/mL (≈ 1.18 µM)

COc1cc(C(=O)NCCCl)cc(OC)c1OCCCCCc1cc(C)no1 [158(b), N-(2-Chloroethyl)-3,5-dimethoxy-4-{[5-(3-methyl-5-isoxazolyl)pentyl]oxy}benzamide]
MIC50 [1]: 1.73 µg/mL (≈ 4.21 µM) | IC (MIC80 of serotype panel) ([1]; read-out: Rhinovirus MIC80): 4.7 µg/mL | MIC [2]: 2 µg/mL (≈ 4.87 µM)

Cc1cc(CCCCCCCOc2ccc(C3=NCCO3)cc2F)on1 [19(b), 5-{7-[4-(4,5-Dihydro-2-oxazolyl)-2-fluorophenoxy]heptyl}-3-methylisoxazole]
MIC50 [1]: 0.8 µg/mL (≈ 2.22 µM) | IC (MIC80 of serotype panel) ([1]; read-out: Rhinovirus MIC80): 99 µg/mL | MIC [2]: 0.3 µg/mL (≈ 0.832 µM)

Cc1cc(CCCCCOc2ccc(C3=NCCO3)cc2C(F)(F)F)on1 [Example 54, 5-{5-[4-(4,5-Dihydro-2-oxazolyl)-2-trifluoromethylphenoxy]pentyl}-3-methylisoxazole]
MIC50 [1]: 0.08 µg/mL (≈ 0.209 µM) | IC (MIC80 of serotype panel) ([1]; read-out: Rhinovirus MIC80): 0.42 µg/mL | MIC [2]: 1.3 µg/mL (≈ 3.4 µM)

Cc1cc(CCCCCCc2c(Cl)cc(C3=NCCO3)cc2Cl)on1 [163(b), 5-{6-[2,6-Dichloro-4-(4,5-dihydro-2-oxazolyl)phenyl]hexyl}-3-methylisoxazole]
MIC50 [1]: 0.49 µg/mL (≈ 1.29 µM) | IC (MIC80 of serotype panel) ([1]; read-out: Rhinovirus MIC80): 0.73 µg/mL | MIC [2]: 1.4 µg/mL (≈ 3.67 µM)

Cc1cc(CCCCCOc2ccc(C3=NCCO3)cc2)on1 [Example 2, 5-{5-[4-(4,5-Dihydro-2-oxazolyl)phenoxy]pentyl}-3-methylisoxazole]
MIC50 [1]: 0.38 µg/mL (≈ 1.21 µM) | IC (MIC80 of serotype panel) ([1]; read-out: Rhinovirus MIC80): 2.2 µg/mL | MIC [2]: 0.6 µg/mL (≈ 1.91 µM) | responders at 77 mg/kg [3]: 85%

Cc1cc(CCCCCOc2c(Cl)cc(C3=NCCO3)cc2Cl)on1 [5-{5-[2,6-Dichloro-4-(4,5-dihydro-2-oxazolyl)phenoxyl]-pentyl}-3-methylisoxazole]
IC (MIC80 of serotype panel) ([1]; read-out: MIC80): 0.23 µg/mL | MIC50 [1]: 0.07 µg/mL (≈ 0.183 µM) | IC (MIC80 of serotype panel) ([1]; read-out: Rhinovirus MIC80): 0.126 µg/mL | oral activity in echovirus-9 infections [5]: potent oral activity | MIC [2]: 0.59 µg/mL (≈ 1.54 µM) | responders at 50 mg/kg [3]: 10% | responders at 100 mg/kg [3]: 25% | responders at 200 mg/kg [3]: 30% | ED50 ([6]; Mus musculus, po, read-out: PD50): 2.5 mg/kg | oral activity in coxsackie virus A-9 infections ([6]; mouse infection model, oral): potent oral activity | IC (MIC80 of serotype panel) [7]: 1.6 µg/mL | Cmax [4]: 1570 ± 350 ng/mL

Cc1cc(CCCCCCCOc2ccc(C3=NCCO3)cc2Cl)on1 [13(c), 5-{7-[2-Chloro-4-(4,5-dihydro-2-oxazolyl)phenoxy]heptyl}-3-methylisoxazole]
MIC50 [1]: 0.34 µg/mL (≈ 0.902 µM) | IC (MIC80 of serotype panel) ([1]; read-out: Rhinovirus MIC80): 1.06 µg/mL | MIC [2]: 0.17 µg/mL (≈ 0.451 µM) | responders at 25 mg/kg [3]: 20% | responders at 50 mg/kg [3]: 61.1% | responders at 100 mg/kg [3]: 80%

Cc1cc(CCCCCOc2c(Cl)cc(C(=O)NCCCl)cc2[N+](=O)[O-])on1 [153(c), 3-Chloro-N-(2-chloroethyl)-4-{[5-(3-methyl-5-isoxazolyl)pentyl]oxy}-5-nitrobenzamide]
MIC50 [1]: 0.08 µg/mL (≈ 0.186 µM) | IC (MIC80 of serotype panel) ([1]; read-out: Rhinovirus MIC80): 0.23 µg/mL | MIC [2]: 0.86 µg/mL (≈ 2 µM)

Cc1cc(CCCCCCCOc2ccc(C3=NCCO3)c(C)c2)on1 [38(b), 5-{7-[4-(4,5-Dihydro-2-oxazolyl)-3-methylphenoxy]heptyl}-3-methylisoxazole]
MIC50 [1]: 0.69 µg/mL (≈ 1.94 µM) | IC (MIC80 of serotype panel) ([1]; read-out: Rhinovirus MIC80): 0.9 µg/mL | MIC [2]: 0.3 µg/mL (≈ 0.842 µM)

Cc1cc(CCCCCOc2ccc(C3=NCC(CO)O3)cc2)on1 (centres unmarked) [Example 75, 5-{5-[4-(4,5-Dihydro-5-hydroxymethyl-2-oxazolyl)phenoxyl]pentyl}-3-methylisoxazole]
MIC50 [1]: 9.95 µg/mL (≈ 28.9 µM) | IC (MIC80 of serotype panel) ([1]; read-out: Rhinovirus MIC80): 35.2 µg/mL | MIC [2]: 0.69 µg/mL (≈ 2 µM)

Cc1cc(CC/C=C/COc2c(Cl)cc(C3=NCCO3)cc2Cl)on1 [Example 113, 5-{5-[2,6-Dichloro-4-(4,5-dihydro-2-oxazolyl)phenoxy]-3-pentenyl}-3-methylisoxazole (E-isomer)]
MIC50 [1]: 0.09 µg/mL (≈ 0.236 µM) | IC (MIC80 of serotype panel) ([1]; read-out: Rhinovirus MIC80): 0.167 µg/mL | MIC [2]: 0.4 µg/mL (≈ 1.05 µM)

Cc1cc(CCCCCOc2ccc(-c3ncco3)cc2Br)on1 [Example 92, 5-{5-[2-Bromo-4-(2-oxazolyl)phenoxy]pentyl}-3-methylisoxazole]
MIC50 [1]: 0.07 µg/mL (≈ 0.179 µM) | IC (MIC80 of serotype panel) ([1]; read-out: Rhinovirus MIC80): 0.61 µg/mL | MIC [2]: 0.07 µg/mL (≈ 0.179 µM)

Cc1cc(CCCCCCOc2ccc(C3=NC(C)CO3)cc2Cl)on1 (centres unmarked) [Example 48, 5-{6-[2-Chloro-(4,5-dihydro-4-methyl-2-oxazolyl)phenoxy]hexyl}-3-methylisoxazole]
MIC50 [1]: 0.13 µg/mL (≈ 0.345 µM) | IC (MIC80 of serotype panel) ([1]; read-out: Rhinovirus MIC80): 0.37 µg/mL | MIC [2]: 2.3 µg/mL (≈ 6.1 µM)

Cc1cc(CCCCCCCOc2ccc(C3=NCCO3)c(O)c2)on1 [Example 59, 5-{7-[4-(4,5-Dihydro-2-oxazolyl)-3-hydroxyphenoxy]heptyl}-3-methylisoxazole]
MIC50 [1]: 0.435 µg/mL (≈ 1.21 µM) | IC (MIC80 of serotype panel) ([1]; read-out: Rhinovirus MIC80): 25.2 µg/mL | MIC [2]: 0.04 µg/mL (≈ 0.112 µM)

C=CCc1cc(C2=NCCO2)ccc1OCCCCCc1cc(C)no1 [Example 61, 5-{5-[4-(4,5-Dihydro-2-oxazolyl)-2-(2-propenyl)phenoxy]pentyl}-3-methylisoxazole]
MIC50 [1]: 0.39 µg/mL (≈ 1.1 µM) | IC (MIC80 of serotype panel) ([1]; read-out: Rhinovirus MIC80): 0.75 µg/mL | MIC [2]: 0.54 µg/mL (≈ 1.52 µM)

Cc1cc(CCCCCOc2ccc(C3=NCCO3)cc2N(C)C)on1 [Example 100, 5-{5-[4-(4,5-Dihydro-2-oxazolyl)-2-(dimethylamino)phenoxy]pentyl}-3-methylisoxazole]
MIC50 [1]: 0.76 µg/mL (≈ 2.13 µM) | IC (MIC80 of serotype panel) ([1]; read-out: Rhinovirus MIC80): 99 µg/mL | MIC [2]: 6.2 µg/mL (≈ 17.3 µM)
